For 23 compounds, IC50 results are on record in patent publication US20260078120A1, “SUBSTITUTED PYRIDOPYRIMIDINONES” (MIRATI THERAPEUTICS, INC., priority 2022, published 2026).

The structures appear in SMILES notation. Read-outs that look alike come from different tables or passages of the source.

Test [1] relates to SKBR3 (PI3Kα wild type) cells. Briefly: CellTiter-Glo 2.0 luminescent cell viability assay, 72 hours, SKBR3 cells. The format is cell-based. As to conditions: SKBR3 (PI3Kα wild type) cells, CellTiter-Glo, approximately 72 hours, read-out: SKBR3 (WT) Viability IC50. Summed up:
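Viability measured via CTG luminescence following roughly 72 hours of compound exposure at 37° C. Dosing used a 10 um starting concentration diluted 1:4 over 10 points; percent-of-vehicle data fitted with a variable-slope four-parameter model for IC50.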

Test [2] concerns T47D (PI3Kα H1047R mutant) cells. Put plainly: CellTiter-Glo 2.0 luminescent cell viability assay, 72 hours, T47D cells. As to conditions: T47D (PI3Kα H1047R mutant) cells, CellTiter-Glo, approximately 72 hours, read-out: T47D (H1047R mutant) Viability IC50. Format: cell-based. The essentials:
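Cells seeded at 1000 per well overnight were dosed with a 10-concentration, 1:4 series starting at 10 µM and incubated ~72 h at 37° C. Viability was read by CellTiter-Glo 2.0 luminescence after 30 min at room temperature. IC50 came from four-parameter fits of percent vehicle control.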
(ATP-based viability assays read luminescence as a measure of living cells.)

Usually IC50 stands for the concentration needed to halve the response being measured. As to `Cc1cc([C@@H](C)Nc2ccccc2C(=O)O)c2nc(N3C4CCC3CN(c3ccc(C#N)cc3)C4)c(C#N)c(=O)n2c1` [Example 11-182, 2-(((1R)-1-(3-cyano-2-(3-(4-cyanophenyl)-3,8-diazabicyclo[3.2.1]octan-8-yl)-7-methyl-4-oxo-4H-pyrido[1,2-a]pyrimidin-9-yl)ethyl)amino)benzoic acid], the IC50 in test [1] (Homo sapiens, SK-BR-3, 72 h) is > 10000 nM; in test [2] (Homo sapiens, T47D, 72 h), 238 nM.
The matching figures for `Cc1cc([C@@H](C)Nc2ccccc2C(=O)O)c2nc(N3C4CCC3CN(c3ccc(C#N)cc3)C4)c(C)c(=O)n2c1` [Example 11-183, 2-(((1R)-1-(2-(3-(4-cyanophenyl)-3,8-diazabicyclo[3.2.1]octan-8-yl)-3,7-dimethyl-4-oxo-4H-pyrido[1,2-a]pyrimidin-9-yl)ethyl)amino)benzoic acid]: > 10000 nM and 197 nM.
On the same counts, the results for `Cc1cc([C@@H](C)Nc2ccccc2C(=O)O)c2nc(N3CCN(c4cn(C)nc4C#N)CC3)c(C#N)c(=O)n2c1` [Example 11-184, (R)-2-((1-(3-cyano-2-(4-(3-cyano-1-methyl-1H-pyrazol-4-yl)piperazin-1-yl)-7-methyl-4-oxo-4H-pyrido[1,2-a]pyrimidin-9-yl)ethyl)amino)benzoic acid] are > 10000 nM and 370 nM.
With `Cc1cc([C@@H](C)Nc2ccccc2C(=O)O)c2nc(N3CCN(c4cn(C)nc4C#N)CC3)c(C)c(=O)n2c1` [Example 11-185, (R)-2-((1-(2-(4-(3-cyano-1-methyl-1H-pyrazol-4-yl)piperazin-1-yl)-3,7-dimethyl-4-oxo-4H-pyrido[1,2-a]pyrimidin-9-yl)ethyl)amino)benzoic acid], the IC50 is > 10000 nM in test [1] (Homo sapiens, SK-BR-3, 72 h) and 123 nM in test [2] (Homo sapiens, T47D, 72 h).
Consider `Cc1cc([C@@H](C)Nc2ccccc2C(=O)O)c2nc(N3CCN(C4CCOCC4)CC3)c(C#N)c(=O)n2c1` [Example 11-186, (R)-2-((1-(3-cyano-7-methyl-4-oxo-2-(4-(tetrahydro-2H-pyran-4-yl)piperazin-1-yl)-4H-pyrido[1,2-a]pyrimidin-9-yl)ethyl)amino)benzoic acid], for which the IC50 in test [1] (Homo sapiens, SK-BR-3, 72 h) is > 10000 nM; in test [2] (Homo sapiens, T47D, 72 h), 606 nM.
The matching figures for `Cc1cc([C@@H](C)Nc2ccccc2C(=O)O)c2nc(N3CCN(C4CCOCC4)CC3)c(C)c(=O)n2c1` [Example 11-187, (R)-2-((1-(3,7-dimethyl-4-oxo-2-(4-(tetrahydro-2H-pyran-4-yl)piperazin-1-yl)-4H-pyrido[1,2-a]pyrimidin-9-yl)ethyl)amino)benzoic acid]: > 10000 nM and 406 nM.
Turning to `Cc1cc([C@@H](C)Nc2ccccc2C(=O)O)c2nc(N3Cc4cc(F)c(F)cc4C3)c(C)c(=O)n2c1` [Example 11-188, (R)-2-((1-(2-(5,6-difluoroisoindolin-2-yl)-3,7-dimethyl-4-oxo-4H-pyrido[1,2-a]pyrimidin-9-yl)ethyl)amino)benzoic acid], the values for the IC50 in test [1] and in test [2] were > 10000 nM and 152 nM, respectively.
In the case of `Cc1cc([C@@H](C)Nc2ccccc2C(=O)O)c2nc(N3C4CCC3CC(F)(F)C4)c(C)c(=O)n2c1` [Example 11-189, 2-(((1R)-1-(2-(3,3-difluoro-8-azabicyclo[3.2.1]octan-8-yl)-3,7-dimethyl-4-oxo-4H-pyrido[1,2-a]pyrimidin-9-yl)ethyl)amino)benzoic acid], the IC50 in test [1] (Homo sapiens, SK-BR-3, 72 h) was > 10000 nM; in test [2] (Homo sapiens, T47D, 72 h), 261 nM.
Consider `Cc1cc([C@@H](C)Nc2ccccc2C(=O)O)c2nc(N3CC4(CN(c5ccc(C#N)cc5)C4)C3)c(C#N)c(=O)n2c1` [Example 11-190, (R)-2-((1-(3-cyano-2-(6-(4-cyanophenyl)-2,6-diazaspiro[3.3]heptan-2-yl)-7-methyl-4-oxo-4H-pyrido[1,2-a]pyrimidin-9-yl)ethyl)amino)benzoic acid], for which the half-inhibitory concentration (IC50) is > 10000 nM in test [1] (Homo sapiens, SK-BR-3, 72 h) and 1110 nM in test [2] (Homo sapiens, T47D, 72 h).
As to `Cc1cc([C@@H](C)Nc2ccccc2C(=O)O)c2nc(N3CC4(CN(c5ccc(C#N)cc5)C4)C3)c(C)c(=O)n2c1` [Example 11-191, (R)-2-((1-(2-(6-(4-cyanophenyl)-2,6-diazaspiro[3.3]heptan-2-yl)-3,7-dimethyl-4-oxo-4H-pyrido[1,2-a]pyrimidin-9-yl)ethyl)amino)benzoic acid], the 50% inhibitory concentration (IC50) in test [1] (Homo sapiens, SK-BR-3, 72 h) is > 10000 nM; in test [2] (Homo sapiens, T47D, 72 h) it was 1060 nM.
On to `Cc1cc([C@@H](C)Nc2ccccc2C(=O)O)c2nc(NC[C@@H]3CCOC3)c(C#N)c(=O)n2c1` [Example 11-192, 2-(((R)-1-(3-cyano-7-methyl-4-oxo-2-((((S)-tetrahydrofuran-3-yl)methyl)amino)-4H-pyrido[1,2-a]pyrimidin-9-yl)ethyl)amino)benzoic acid], for which the IC50 in test [1] (Homo sapiens, SK-BR-3, 72 h) is > 10000 nM; in test [2] (Homo sapiens, T47D, 72 h), 2440 nM.
The matching figures for `Cc1cc([C@@H](C)Nc2ccccc2C(=O)O)c2nc(NC[C@H]3CCOC3)c(C#N)c(=O)n2c1` [Example 11-193, 2-(((R)-1-(3-cyano-7-methyl-4-oxo-2-((((R)-tetrahydrofuran-3-yl)methyl)amino)-4H-pyrido[1,2-a]pyrimidin-9-yl)ethyl)amino)benzoic acid]: > 10000 nM and 1200 nM.
The matching figures for `Cc1cc([C@@H](C)Nc2ccccc2C(=O)O)c2nc(NCC3CCOC3)c(C#N)c(=O)n2c1` (stereo partly drawn) [Example 11-194, 2-(((1R)-1-(3-cyano-7-methyl-4-oxo-2-(((tetrahydrofuran-3-yl)methyl)amino)-4H-pyrido[1,2-a]pyrimidin-9-yl)ethyl)amino)benzoic acid]: > 10000 nM and 590 nM.
On the same counts, the results for `Cc1cc([C@@H](C)Nc2ccccc2C(=O)O)c2nc(NC[C@@H]3CCOC3)c(C)c(=O)n2c1` [Example 11-195, 2-(((R)-1-(3,7-dimethyl-4-oxo-2-((((S)-tetrahydrofuran-3-yl)methyl)amino)-4H-pyrido[1,2-a]pyrimidin-9-yl)ethyl)amino)benzoic acid] are > 10000 nM and 383 nM.
Turning to `Cc1cc([C@@H](C)Nc2ccccc2C(=O)O)c2nc(NC[C@H]3CCOC3)c(C)c(=O)n2c1` [Example 11-196, 2-(((R)-1-(3,7-dimethyl-4-oxo-2-((((R)-tetrahydrofuran-3-yl)methyl)amino)-4H-pyrido[1,2-a]pyrimidin-9-yl)ethyl)amino)benzoic acid], the IC50 is > 10000 nM in test [1] (Homo sapiens, SK-BR-3, 72 h) and 646 nM in test [2] (Homo sapiens, T47D, 72 h).
The matching figures for `Cc1cc([C@@H](C)Nc2ccccc2C(=O)O)c2nc(NCC3CCOC3)c(C)c(=O)n2c1` (stereo partly drawn) [Example 11-197, 2-(((1R)-1-(3,7-dimethyl-4-oxo-2-(((tetrahydrofuran-3-yl)methyl)amino)-4H-pyrido[1,2-a]pyrimidin-9-yl)ethyl)amino)benzoic acid]: > 10000 nM and 1290 nM.
For the compound `Cc1cc([C@@H](C)Nc2ccccc2C(=O)O)c2nc(NCC3CC(F)(F)C3)c(C#N)c(=O)n2c1` [Example 11-198, (R)-2-((1-(3-cyano-2-(((3,3-difluorocyclobutyl)methyl)amino)-7-methyl-4-oxo-4H-pyrido[1,2-a]pyrimidin-9-yl)ethyl)amino)benzoic acid], the concentration for half-maximal inhibition (IC50) in test [1] (Homo sapiens, SK-BR-3, 72 h) was > 10000 nM; in test [2] (Homo sapiens, T47D, 72 h), 232 nM.
Consider `Cc1cc([C@@H](C)Nc2ccccc2C(=O)O)c2nc(NCC3CC(F)(F)C3)c(C)c(=O)n2c1` [Example 11-199, (R)-2-((1-(2-(((3,3-difluorocyclobutyl)methyl)amino)-3,7-dimethyl-4-oxo-4H-pyrido[1,2-a]pyrimidin-9-yl)ethyl)amino)benzoic acid], for which the IC50 in test [1] (Homo sapiens, SK-BR-3, 72 h) was > 10000 nM; in test [2] (Homo sapiens, T47D, 72 h) it was 498 nM.
With `Cc1cc([C@@H](C)Nc2ccccc2C(=O)O)c2nc(N3CC4(CCC4(F)F)C3)c(C#N)c(=O)n2c1` [Example 11-200, (R)-2-((1-(3-cyano-2-(5,5-difluoro-2-azaspiro[3.3]heptan-2-yl)-7-methyl-4-oxo-4H-pyrido[1,2-a]pyrimidin-9-yl)ethyl)amino)benzoic acid], the IC50 is > 10000 nM in test [1] (Homo sapiens, SK-BR-3, 72 h) and 129 nM in test [2] (Homo sapiens, T47D, 72 h).
On the same counts, the results for `Cc1cc([C@@H](C)Nc2ccccc2C(=O)O)c2nc(N3CC4(CCC4(F)F)C3)c(C)c(=O)n2c1` [Example 11-201, (R)-2-((1-(2-(5,5-difluoro-2-azaspiro[3.3]heptan-2-yl)-3,7-dimethyl-4-oxo-4H-pyrido[1,2-a]pyrimidin-9-yl)ethyl)amino)benzoic acid] are > 10000 nM and 117 nM.
On the same counts, the results for `Cc1cc([C@@H](C)Nc2ccccc2C(=O)O)c2nc(N3CC4(C3)CC(F)(F)C4)c(C)c(=O)n2c1` [Example 11-202, (R)-2-((1-(2-(6,6-difluoro-2-azaspiro[3.3]heptan-2-yl)-3,7-dimethyl-4-oxo-4H-pyrido[1,2-a]pyrimidin-9-yl)ethyl)amino)benzoic acid] are > 10000 nM and 304 nM.
The matching figures for `Cc1cc([C@@H](C)Nc2ccccc2C(=O)O)c2nc(N(C)CC3CC3)c(C)c(=O)n2c1` [Example 11-203, (R)-2-((1-(2-((cyclopropylmethyl)(methyl)amino)-3,7-dimethyl-4-oxo-4H-pyrido[1,2-a]pyrimidin-9-yl)ethyl)amino)benzoic acid]: > 10000 nM and 356 nM.
As to `Cc1cc([C@@H](C)Nc2ccccc2C(=O)O)c2nc(NCC3COC3)c(C#N)c(=O)n2c1` [Example 11-204, (R)-2-((1-(3-cyano-7-methyl-2-((oxetan-3-ylmethyl)amino)-4-oxo-4H-pyrido[1,2-a]pyrimidin-9-yl)ethyl)amino)benzoic acid], the IC50 was > 10000 nM in test [1] (Homo sapiens, SK-BR-3, 72 h) and 1600 nM in test [2] (Homo sapiens, T47D, 72 h).
